Reference: US20260174677A1, “METHODS OF TREATING INSULIN RESISTANCE AND ASSOCIATED DISORDERS” (The University of Melboune, priority 2022, published 2026)

Experiment: Intranasal PZ6005 in obese mice: I.P. GTT, ITT and fasting glucose
Format: in vivo, mouse
Procedure: Metabolic measurements were undertaken in the Melbourne Mouse Metabolic Phenotyping Platform (The University of Melbourne, Australia). Glucose tolerance tests were performed on 6 h fasted conscious mice respectively by injecting D-glucose (2 mg/g of lean body mass and 1 mg/g lean mass for db/db and HFHS+STZ mice) into the peritoneal cavity and measuring glucose in tail blood immediately before and at 15, 30, 45, 60, 90 and 120 min after injection using an Accu-Check glucometer (Roche, Germany). The areas under glucose excursion curves were determined and expressed as mmol/1×min. Fasted (12 h fast) plasma insulin or glucose levels were determined using a Rat/Mouse Insulin ELISA (EZRMI-13K, Merck Millipore, CA) or an Accu-Check glucometer respectively. The HOMA-IR was calculated using the equation [(glucose×insulin)/405]. Adiposity was measured using TD-NMR minispec (Bruker Optics Inc., Billerica, MA).
Conscious mice were restrained by scruffing and inverted parallel to the floor with the chin at ˜180-degree angle with the neck. Using a 10 μL tip, a pipettor was loaded with 5 μl of vehicle (ddH2O) or fluorosamine (1 mg/animal in 20 μl or 5 mg/animal in 20 μl). The tip of the filled pipettor was placed near the left nostril at a 45-degree angle, and the drug was ejected to form a small 5 μl droplet at tip for the mouse to inhale. Immediately after the mouse inhaled the first droplet the remaining solution was ejected to form another small droplet for the mouse to inhale through the same nostril. The mouse was held in this position for 15 seconds before the procedure was repeated in the right nostril. The mouse was returned to the cage for 2 minutes and the process was repeated so that each mouse received four droplets of 5 μl each, delivering a total of 20 μl of solution. All drugs were administered delivered approximately 1 h before lights off […].
Obese mice intranasally receiving either vehicle or PZ6005 (1 or 5 mg/animal/day) were subjected to I.P. GTT after 6 hrs fasting period and I.P. insulin tolerance test (ITT) after 4 hrs fasting period.

CC(=O)NC1C(OC(C)=O)OC(COC(C)=O)[C@@H](F)C1OC(C)=O (stereo partly shown) [fluorosamine, per-O-acetylated-4-F-N-acetylglucosamine]
glucose clearance rate vs 1 mg treatment group and controls (I.N. 5 mg, after 60 mins of I.P. glucose in GTT and after 0 mins of I.P. insulin): significantly higher glucose clearance rate | insulin sensitivity (ITT) (I.N. 1 or 5 mg/animal/day, obese mice): enhanced insulin sensitivity | glucose tolerance (glucose excursion in GTT and ITT) (I.N. 1 or 5 mg/animal/day, obese mice, vs control littermates): better glucose tolerance than control littermates | fasting (12 hrs) glucose level (both doses of intranasal treatment (1 or 5 mg/animal/day)): Reduction
